According to ChEMBL document CHEMBL1671726 (Antimicrob Agents Chemother, 2010):

Legend:
Test in all cases: microbe, parasite or virus in culture
Plasmodium falciparum [1] = conditions: 72 h
Description: Antimicrobial activity against Plasmodium falciparum harboring pfnhe1 ms4760 haplotype 35 carrying 1 copy of DNNND repeat and His/Asp ratio 5:2 infected in human erythrocytes after 72 hrs by SYBR green I-based fluorescence assay

Plasmodium falciparum [2] = conditions: F09A41, 72 h
Plasmodium falciparum [3] = conditions: F09N66, 72 h
Plasmodium falciparum [4] = conditions: F07-23, 72 h
Plasmodium falciparum [5] = conditions: F09N58, 72 h
Plasmodium falciparum [6] = conditions: F09N40, 72 h
Plasmodium falciparum [7] = conditions: F08B61, 72 h
Plasmodium falciparum [8] = conditions: F08B9, 72 h
Plasmodium falciparum [9] = conditions: F09A10, 72 h
Plasmodium falciparum [10] = conditions: F08B27, 72 h
Plasmodium falciparum [11] = conditions: F09A54, 72 h
Plasmodium falciparum [12] = conditions: F07-35, 72 h
Plasmodium falciparum [13] = conditions: F08B53, 72 h
Plasmodium falciparum [14] = conditions: K1, 72 h
Plasmodium falciparum [15] = conditions: F09N6, 72 h
Plasmodium falciparum [16] = conditions: F07-31, 72 h
Plasmodium falciparum [17] = conditions: F09N29, 72 h
Plasmodium falciparum [18] = conditions: W2, 72 h
Plasmodium falciparum [19] = conditions: F09A61, 72 h
Plasmodium falciparum [20] = conditions: F08B40, 72 h
Plasmodium falciparum [21] = conditions: F07-8, 72 h
Plasmodium falciparum [22] = conditions: F08B7, 72 h
Plasmodium falciparum [23] = conditions: F09N64, 72 h
Plasmodium falciparum [24] = conditions: F09N35, 72 h
Plasmodium falciparum [25] = conditions: F09A9, 72 h
Plasmodium falciparum [26] = conditions: F09A55, 72 h
Plasmodium falciparum [27] = conditions: F07-3, 72 h
Plasmodium falciparum [28] = conditions: F07-46, 72 h
Plasmodium falciparum [29] = conditions: F07-13, 72 h
Plasmodium falciparum [30] = conditions: 72 h; remark: listed apart in the source
Description: Antimicrobial activity against Plasmodium falciparum harboring pfnhe1 ms4760 haplotype 9 carrying 3 copies of DNNND repeat and His/Asp ratio 7:6 infected in human erythrocytes after 72 hrs by SYBR green I-based fluorescence assay

Plasmodium falciparum [31] = conditions: F08B41, 72 h
Plasmodium falciparum [32] = conditions: 72 h; remark: listed apart in the source
Description: Antimicrobial activity against Plasmodium falciparum harboring pfnhe1 ms4760 haplotype 3 carrying 1 copy of DNNND repeat and His/Asp ratio 6:2 infected in human erythrocytes after 72 hrs by SYBR green I-based fluorescence assay

Plasmodium falciparum [33] = conditions: F07-42, 72 h
Plasmodium falciparum [34] = conditions: F07-28, 72 h
Plasmodium falciparum [35] = conditions: F08B2, 72 h
Plasmodium falciparum [36] = conditions: F07-7, 72 h

C=C[C@H]1CN2CC[C@H]1C[C@H]2[C@H](O)c1ccnc2ccc(OC)cc12 [QUININE]
IC50 (Plasmodium falciparum [1]): 260 nM | IC50 (Plasmodium falciparum [2]): 1300 nM | IC50 (Plasmodium falciparum [3]): 711 nM | IC50 (Plasmodium falciparum [4]): 447 nM | IC50 (Plasmodium falciparum [5]): 448 nM | IC50 (Plasmodium falciparum [6]): 2120 nM | IC50 (Plasmodium falciparum [7]): 1130 nM | IC50 (Plasmodium falciparum [8]): 218 nM | IC50 (Plasmodium falciparum [9]): 716 nM | IC50 (Plasmodium falciparum [10]): 870 nM | IC50 (Plasmodium falciparum [11]): 243 nM | IC50 (Plasmodium falciparum [12]): 821 nM | IC50 (Plasmodium falciparum [13]): 468 nM | IC50 (Plasmodium falciparum [14]): 407 nM | IC50 (Plasmodium falciparum [15]): 710 nM | IC50 (Plasmodium falciparum [16]): 433 nM | IC50 (Plasmodium falciparum [17]): 853 nM | IC50 (Plasmodium falciparum [18]): 720 nM | IC50 (Plasmodium falciparum [19]): 373 nM | IC50 (Plasmodium falciparum [20]): 260 nM | IC50 (Plasmodium falciparum [21]): 874 nM | IC50 (Plasmodium falciparum [22]): 1100 nM | IC50 (Plasmodium falciparum [23]): 475 nM | IC50 (Plasmodium falciparum [24]): 905 nM | IC50 (Plasmodium falciparum [25]): 562 nM | IC50 (Plasmodium falciparum [26]): 149 nM | IC50 (Plasmodium falciparum [27]): 875 nM | IC50 (Plasmodium falciparum [28]): 894 nM | IC50 (Plasmodium falciparum [29]): 365 nM | IC50 (Plasmodium falciparum [30]): 837 nM | IC50 (Plasmodium falciparum [31]): 886 nM | IC50 (Plasmodium falciparum [32]): 223 nM | IC50 (Plasmodium falciparum [33]): 388 nM | IC50 (Plasmodium falciparum [34]): 473 nM | IC50 (Plasmodium falciparum [35]): 1020 nM | IC50 (Plasmodium falciparum [36]): 456 nM
